Data as given in patent US11339171B2, “MDM2 inhibitors” (Gan & Lee Pharmaceuticals, priority 2017, dated 2022).

Molecular target: T1, MDM2 (Homo sapiens, UniProt Q00987)
T1 construct: made in house
Test: Inhibition test of MDM2-P53 (GST-MDM2, Biotin-P53, Anti-GST-Tb, SA-XL665)
Format: binding
Procedure, shortened: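 HTRF-type assay using 4 nM GST-MDM2 (final), Biotin-P53, SA-XL665 and anti-GST-Tb in PBS with 0.1% BSA, 5 mM DTT and 1 mM AEBSF. Compounds in 5-fold serial dilutions over twelve points; incubation 90 min at 25° C with shaking before plate-reader read-out.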

T1 sequence (Q00987 whole entry): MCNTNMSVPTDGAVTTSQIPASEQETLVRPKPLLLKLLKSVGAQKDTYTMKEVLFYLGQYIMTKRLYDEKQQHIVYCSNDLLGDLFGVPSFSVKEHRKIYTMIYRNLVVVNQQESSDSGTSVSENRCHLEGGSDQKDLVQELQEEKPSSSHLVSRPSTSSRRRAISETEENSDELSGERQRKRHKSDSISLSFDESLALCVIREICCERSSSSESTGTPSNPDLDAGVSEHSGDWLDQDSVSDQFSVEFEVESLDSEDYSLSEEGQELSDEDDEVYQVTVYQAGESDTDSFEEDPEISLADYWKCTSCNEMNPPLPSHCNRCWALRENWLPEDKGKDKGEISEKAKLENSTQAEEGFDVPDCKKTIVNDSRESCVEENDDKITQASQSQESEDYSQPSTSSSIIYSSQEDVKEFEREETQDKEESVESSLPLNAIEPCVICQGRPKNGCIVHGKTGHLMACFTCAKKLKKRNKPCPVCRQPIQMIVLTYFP

CCOc1ncc(-c2nc3c(n2C(C)C)[C@]2(C(=O)Nc4cc(Cl)ccc42)N(c2cc(Cl)cnc2C)C3=O)c(OC)n1 [Example R-134, (R)-6-chloro-5′-(5-chloro-2-methylpyridin-3-yl)-2′-(2-ethoxy-4-methoxypyrimidin-5-yl)-3′-isopropyl-3′H-spiro[dihydroindole-3,4′-pyrrolo[3,4-d]imidazole]-2,6′(5′H)-dione]
IC50: 322 nM

COc1nc(N(C)C)ncc1-c1nc2c(n1C(C)C)[C@]1(C(=O)Nc3cc(Cl)ccc31)N(c1cc(Cl)cnc1C)C2=O [Example R-135, (R)-6-chloro-5′-(5-chloro-2-methylpyridin-3-yl)-2′-(2-(dimethylamino)-4-methoxypyrimidin-5-yl)-3′-isopropyl-3′H-spiro[dihydroindole-3,4′-pyrrolo[3,4-d]imidazole]-2,6′(5′H)-dione]
IC50: 423 nM

COc1nc(OC(C)C)ncc1-c1nc2c(n1C(C)C)[C@]1(C(=O)Nc3cc(Cl)ccc31)N(c1cc(Cl)cnc1C)C2=O [Example R-136, (R)-6-chloro-5′-(5-chloro-2-methylpyridin-3-yl)-2′-(2-isopropoxy-4-methoxypyrimidin-5-yl)-3′-isopropyl-3′H-spiro[dihydroindole-3,4′-pyrrolo[3,4-d]imidazole]-2,6′(5′H)-dione]
IC50: 1800 nM

COc1cc(OC(C)C)ncc1-c1nc2c(n1C(C)C)[C@]1(C(=O)Nc3cc(Cl)ccc31)N(c1cc(Cl)cnc1C)C2=O [Example R-137, (R)-6-chloro-5′-(5-chloro-2-methylpyridin-3-yl)-2′-(6-isopropoxy-4-methoxypyridin-3-yl)-3′-isopropyl-3′H-spiro[dihydroindole-3,4′-pyrrolo[3,4-d]imidazole]-2,6′(5′H)-dione]
IC50: 422 nM

COc1cc(C(F)(F)F)ncc1-c1nc2c(n1C(C)C)[C@]1(C(=O)Nc3cc(Cl)ccc31)N(c1cc(Cl)ccc1C)C2=O [Example R-138, (R)-6-chloro-5′-(5-chloro-2-methylphenyl)-3′-isopropyl-2′-(4-methoxy-6-(trifluoromethyl)pyridin-3-yl)-3′H-spiro[dihydroindole-3,4′-pyrrolo[3,4-d]imidazole]-2,6′(5′H)-dione]
IC50: 132 nM

CCOc1cc(OC)c(-c2nc3c(n2C(C)C)[C@]2(C(=O)Nc4cc(Cl)ccc42)N(c2cc(F)cc(Cl)c2)C3=O)cn1 [Example R-139, (R)-6-chloro-5′-(3-chloro-5-fluorophenyl)-2′-(6-ethoxy-4-methoxypyridin-3-yl)-3′-isopropyl-3′H-spiro[dihydroindole-3,4′-pyrrolo[3,4-d]imidazole]-2,6′(5′H)-dione]
IC50: 342 nM

COc1nc(OCC(F)(F)F)ncc1-c1nc2c(n1C(C)C)[C@]1(C(=O)Nc3cc(Cl)ccc31)N(c1cc(Cl)ccc1C)C2=O [Example R-141, (R)-6-chloro-5′-(5-chloro-2-methylphenyl)-3′-isopropyl-2′-(4-methoxy-2-(2,2,2-trifluoroethoxy)pyrimidin-5-yl)-3′H-spiro[dihydroindole-3,4′-pyrrolo[3,4-d]imidazole]-2,6′(5′H)-dione]
IC50: 762 nM

COc1cc(C(F)(F)F)ncc1-c1nc2c(n1C(C)C)[C@]1(C(=O)Nc3cc(Cl)ccc31)N(c1cccc(Cl)c1)C2=O [Example R-142, (R)-6-chloro-5′-(3-chlorophenyl)-3′-isopropyl-2′-(4-methoxy-6-(trifluoromethyl)pyridin-3-yl)-3′H-spiro[dihydroindole-3,4′-pyrrolo[3,4-d]imidazole]-2,6′(5′H)-dione]
IC50: 137 nM

COc1cc(C2CC2)ccc1-c1nc2c(n1C(C)C)[C@]1(C(=O)Nc3cc(Cl)ccc31)N(c1cc(Cl)cnc1C)C2=O [Example R-145, (R)-6-chloro-5′-(5-chloro-2-methylpyridin-3-yl)-2′-(4-cyclopropyl-2-methoxyphenyl)-3′-isopropyl-3′H-spiro[dihydroindole-3,4′-pyrrolo[3,4-d]imidazole]-2,6′(5′H)-dione]
IC50: 749 nM
